Target: T1, KGA_F318Y/F322S (Homo sapiens, UniProt O94925, F318Y/F322S)
T1 construct: a KGA cDNA fragment of 1644 bp (residues Leu123-Leu669); His-tag (N); made in house; host or cells: Escherichia coli
T1 sequence (O94925 123-669 F318Y/F322S): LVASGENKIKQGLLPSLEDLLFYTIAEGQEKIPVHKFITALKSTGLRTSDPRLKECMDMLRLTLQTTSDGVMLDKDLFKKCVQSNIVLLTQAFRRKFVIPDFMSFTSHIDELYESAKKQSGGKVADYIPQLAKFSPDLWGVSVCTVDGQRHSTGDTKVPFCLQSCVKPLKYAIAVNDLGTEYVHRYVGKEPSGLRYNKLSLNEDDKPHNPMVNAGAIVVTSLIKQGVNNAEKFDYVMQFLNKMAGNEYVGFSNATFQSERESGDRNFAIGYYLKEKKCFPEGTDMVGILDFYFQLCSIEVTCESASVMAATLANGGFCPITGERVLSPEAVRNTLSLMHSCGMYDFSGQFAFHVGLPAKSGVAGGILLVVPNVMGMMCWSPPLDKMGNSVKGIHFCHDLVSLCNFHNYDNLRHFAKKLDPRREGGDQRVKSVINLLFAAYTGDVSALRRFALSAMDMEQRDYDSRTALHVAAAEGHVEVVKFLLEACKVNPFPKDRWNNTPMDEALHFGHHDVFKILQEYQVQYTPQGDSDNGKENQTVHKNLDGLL
Experiment: Glutaminase activity assay, KGA mutant F318Y/F322S
Type: biochemical
Description: Human glutaminase activity was measured using a two-step assay as described previously. A microtiter assay format was used to facilitate the collection of multiple data points. […] Samples were incubated at 25°C for 10 min and then 10 μl of 200 mM glutamine were added to the reaction mix. After adding glutamine, the reactions were incubated at 37°C for 60 min and then quenched by the addition of 10 μl of 0.6 M HCl. Subsequently, 100 μl of a second reaction mixture (3.7 units of purified bovine liver glutamate dehydrogenase, 160 mM Tris/acetate [pH 9.4], 400 mM hydrazine, 5 mM ADP and 2 mM NAD^+) was added to the stopped first reaction mixture and incubated for 30 min at 25°C. The absorbance at 340 nm was measured using a Wallac Victor2V plate reader (PerkinElmer), fitted with a 340 nm excitation filter. Sample absorbance was measured against a blank, containing no human glutaminase.
Site-directed mutagenesis was performed on the pET28a(+)-GAB or pET28a(+)-KGA plasmids using PfuUltra II Fusion HS DNA polymerase (Agilent Technologies) to create the GAB and KGA mutants. The deep view program (Version 3.7) of the Swiss-MODEL server was used to generate the three dimensional structure of homologous modeled GAB. Using the integrated sequence alignment tools and structural superimposition algorithms, the target sequence was mapped on the modeling templates.

**Q.** With CCCCCCCCCCCCCC(CC1=CC(=O)C=C(OC)C1=O)OC(C)=O (stereo not shown) [AV-1] as the molecule, how does the IC50 read?
**A.** 2400 nM

From paper PMC4171615, “Discovery of selective inhibitors of Glutaminase-2, which inhibit mTORC1, activate autophagy and inhibit proliferation in cancer cells” (Oncotarget, 2014)
